Read-outs that look alike come from different tables or passages of the source. Marks after values point to notes of the source that are not given here.
Experiments:
[1] = system: MCF-7; test: SRB cytotoxicity, MCF-7; assay type: cell-based, human; conditions: Table 1C; SRB, 72 h; read-out: IC50
Outline: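 Monolayer MCF-7 cultures exposed to six to seven drug concentrations in duplicate, then fixed with trichloroacetic acid and stained 30 min with 0.4% sulforhodamine B. Bound dye extracted with unbuffered Tris base, absorbance read at 570 nm; values derived by median-effect plot analysis.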

[2] = system: SK-N-FI; test: cells; assay type: cell-based, human
Outline: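 Monolayer cultures grown in RPMI 1640-10% FBS at 37 °C, 5% CO2, with resistant sublines kept under their selecting agent. Cytotoxicity determined by SRB protein staining (TCA fixation, absorbance 570 nm) in duplicate at six to seven drug concentrations. ED50 obtained by median-effect plot analysis.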

[3] = system: DC-3F/ADX; test: cells; assay type: cell-based, hamster
Outline: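 Hamster lung fibroblast DC-3F sublines selected with actinomycin D (ADII moderate, ADX very strong MDR), maintained under selecting agent in RPMI 1640-10% FBS at 37° C. Monolayers exposed to six to seven drug concentrations in duplicate, TCA-fixed, stained with 0.4% SRB; absorbance 570 nm, analyzed by median-effect plot.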

[4] = system: murine leukemic P388/0; test: XTT cytotoxicity, P388/0; assay type: cell-based; conditions: Table 1C; XTT, 72 h; read-out: IC50
Outline: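 Leukemia cells (CCRF-CEM, P388/0 and drug-resistant sublines kept under selecting agent) grew in RPMI-1640 with 10% FBS at 37 °C, 5% CO2, seeded at 5×10^4 cells/mL. After 72 h drug exposure, viability was read by XTT with 0.025 mM PMS-XTT, 4 h at 37 °C, absorbance 450/630 nm.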

[5] = system: human mammary carcinoma MX-1 xenograft; conditions: for Average Body Weight, Day 7: initial weight, first treatment day
Experimental: DMSO was used as a vehicle for epothilones. Each mouse received ≦40 μL DMSO in all experiments.
Athymic nude mice (nu/nu) were used for MX-1 and MCF-7/Adr human mammary carcinoma xenografts. Mice were obtained from Taconic Laboratory Animals and Service (Germantown, N.Y.: outbred, Swiss background).

[6] = Table 1C, SRB, 72 h, read-out: IC50
[7] = 0.3 mg/kg i.p. Q2Dx5 from day 7, day 11
[8] = 0.3 mg/kg i.p. Q2Dx5 from day 7, day 13
[9] = 0.3 mg/kg i.p. Q2Dx5 from day 7, day 15
[10] = 0.3 mg/kg i.p. Q2Dx5 from day 7, day 17
[11] = 0.6 mg/kg i.p. Q2Dx5 from day 7, day 11
[12] = 0.6 mg/kg i.p. Q2Dx5 from day 7, day 13
[13] = 0.6 mg/kg i.p. Q2Dx5 from day 7, day 15
[14] = 0.6 mg/kg i.p. Q2Dx5 from day 7, day 17
[15] = 0.6 mg/kg i.p. Q2Dx5 from day 9
[16] = 0.6 mg/kg i.p. Q2Dx5 from day 9, day 13
[17] = 0.6 mg/kg i.p. Q2Dx5 from day 9, day 15
[18] = 0.6 mg/kg i.p. Q2Dx5 from day 9, day 17
[19] = 0.6 mg/kg i.p. Q2Dx5 from day 9, day 19
[20] = high doses: dEpoB 25, EpoB 0.6, Taxol 10, Vinblastine 0.4 mg/kg i.p. Q2D from day 7
[21] = low doses: dEpoB 15, EpoB 0.3, Taxol 5, Vinblastine 0.2 mg/kg i.p. Q2D day 7-15

SMILES: C/C(=C\c1csc(C)n1)[C@@H]1C[C@@H]2O[C@]2(C)CCC[C@H](C)[C@H](O)[C@@H](C)C(=O)C(C)(C)[C@@H](O)CC(=O)O1 [Epothilone B, epothilone B]
- IC50 [1]: 0.5 nM
- fold resistance vs parent SK-N-As ([2]; SK-N-F1 cells): 25 fold
- folds of resistance (IC50 ratio vs parent cell line) ([2]; Table 1C, SK-N-FI vs SK-N-As): (25x)
- IC50 [2, 6]: 10 nM
- fold resistance vs parent DC-3F ([3]; DC-3F/ADX cells, listed as EpoB): 28 fold
- folds of resistance (IC50 ratio vs parent cell line) ([3]; Table 1C, DC-3F/ADX vs DC-3F): (28x)
- IC50 [3, 6]: 17 nM
- IC50 [4]: 0.29 nM
- Toxicity Death ([5]; 0.3 mg/kg i.p. Q2Dx5 from day 7): 0/7
- Average Body Weight Change [5, 7]: +0.5 g
- Average Tumor Size (T/C) [5, 7]: 1.00
- Average Body Weight Change [5, 8]: +0.4 g
- Average Tumor Size (T/C) [5, 8]: 0.71
- Average Body Weight Change [5, 9]: -0.3 g
- Average Tumor Size (T/C) [5, 9]: 0.71
- Average Body Weight Change [5, 10]: -1.2 g
- Average Tumor Size (T/C) [5, 10]: 0.84
- Toxicity Death ([5]; 0.6 mg/kg i.p. Q2Dx5 from day 7): 3/7)##
- Average Body Weight Change [5, 11]: -0.3 g
- Average Tumor Size (T/C) [5, 11]: 1.08
- Average Body Weight Change [5, 12]: -1.3 g
- Average Tumor Size (T/C) [5, 12]: 0.73
- Average Body Weight Change [5, 13]: -2.1 g
- Average Tumor Size (T/C) [5, 13]: 0.81
- Average Body Weight Change [5, 14]: -2.1 g
- Average Tumor Size (T/C) [5, 14]: 0.74
- Toxicity Death [5, 15]: 0/6
- Tumor Disapp. [5, 15]: 0/6
- Average Body Weight Change [5, 16]: -0.9 g
- Average Tumor Size (T/C) [5, 16]: 0.67
- Average Body Weight Change [5, 17]: 0.5 g
- Average Tumor Size (T/C) [5, 17]: 0.63
- Average Body Weight Change [5, 18]: -3.3 g
- Average Tumor Size (T/C) [5, 18]: 0.61
- Average Body Weight Change [5, 19]: -3.4 g
- Average Tumor Size (T/C) [5, 19]: 0.51
- average body weight decrease ([5]; EpoB 0.3 mg/kg i.p. days 7-15): over 1 g
- average body weight decrease ([5]; EpoB 0.6 mg/kg i.p. days 7-15): > 2 g
- mice died of toxicity ([5]; EpoB 0.6 mg/kg i.p. days 7-15): three out of seven
- Therapeutic effect Rank Order ([5]; MX-1, i.p., comparison with Camptothecin, VBL, EpoB (order wraps over rows r7-r8)): Taxol ® > VBL, EpoB
- Average Body Weight (change), Day 11 [5, 20]: -0.3 g
- Average Body Weight (change), Day 13 [5, 20]: -1.3 g
- Average Body Weight (change), Day 15 [5, 20]: -2.1 g
- Average Body Weight Change, Day 17 [5, 20]: -2.1 g
- Average Tumor Volume (T/C), Day 11 [5, 20]: 1.08 T/C
- Average Tumor Volume (T/C), Day 13 [5, 20]: 0.73 T/C
- Average Tumor Volume (T/C), Day 15 [5, 20]: 0.81 T/C
- Average Tumor Volume (T/C), Day 17 [5, 20]: 0.74 T/C
- Note: died (mice died/total) [5, 20]: 3/7 died
- Average Body Weight, Day 7 [5, 20]: 27.4 g
- Average Body Weight, Day 7 [5, 21]: 26.9 g
- Average Body Weight (change), Day 11 [5, 21]: +0.5 g
- Average Body Weight (change), Day 13 [5, 21]: +0.4 g
- Average Body Weight (change), Day 15 [5, 21]: -0.3 g
- Average Body Weight Change, Day 17 [5, 21]: -1.2 g
- Average Tumor Volume (T/C), Day 11 [5, 21]: 1.00 T/C
- Average Tumor Volume (T/C), Day 13 [5, 21]: 0.71 T/C
- Average Tumor Volume (T/C), Day 15 [5, 21]: 0.71 T/C
- Average Tumor Volume (T/C), Day 17 [5, 21]: 0.84 T/C
- Note: died (mice died/total) [5, 21]: 0/7 died

— patent publication US6603023B2 (priority 1996, dated 2003)
